# Data taken from patent US20250041249A1, “METHOD OF TREATING LIVER STEATOSIS WITH BIOAVAILABLE FORMULATION OF OLEOYLETHANOLAMIDE” (THE REGENTS OF THE UNIVERSITY OF CALIFORNIA, priority 2021, published 2025).
# Assays:
# HFD-fed mice = test: Subchronic i.p. OEA in HFD-fed mice: body weight gain and blood chemistry; assay type: in vivo, mouse; conditions: OEA 5 mg/kg i.p. once daily for 6 weeks, mean ± S.E.M
# Procedure: 18-week-old mice were randomized into two groups; one received standard chow (6.5% kcal fat, Envigo 2020X, Livermore, CA) and the other a high-fat diet (HFD, 60% kcal fat, D12492, Research Diets, New Brunswick, NJ). Both were available ad libitum for 11 weeks. Body weight and food intake were recorded three times per week. Animals from both groups were randomly assigned to three cohorts: a) free feeding, b) fasting (from 6:00 pm to 12:00 pm on the following day) and c) fasting/refeeding (2 hr access to food after fasting). Mice assigned to the fasting and fasting/refeeding groups were housed in bottom-wired cages to prevent coprophagia. OEA was dissolved in a vehicle of 95% saline/5% Tween80 (v/v) shortly before experiments. It was administered by intraperitoneal (i.p.) injection at 5 mg/kg in a volume of 10 ml/kg. A comprehensive blood chemistry panel was performed at Antech Diagnostics (Irvine, CA). Diet-induced obesity is associated with the development of liver steatosis and fibrosis. We asked whether OEA supplementation might correct these alterations in HFD-fed mice, which are defective in endogenous OEA production. We exposed mice to HFD for 5 weeks, randomized them into two groups, and treated them either with OEA (5 mg/kg, once daily) or vehicle for 6 additional weeks of HFD exposure. As expected, OEA administration reduced body weight gain and lowered circulating total cholesterol and liver transaminase levels (Table 2, FIG. 5). These effects were accompanied by improvement in hepatic lipid profile (FIG. 3). […] Transcription of other relevant genes (Nrf1, Tnfa, Tgf1b, Nqo1) was not affected (FIG. 3h-j).
# [1] = test system: liver inflammation and fibrosis genes; test: Subchronic i.p. OEA in HFD-fed mice: liver gene transcription (real time PCR); assay type: in vivo, mouse; conditions: OEA 5 mg/kg i.p. once daily 6 weeks, versus vehicle controls
# Procedure: 18-week-old mice were randomized into two groups; one received standard chow (6.5% kcal fat, Envigo 2020X, Livermore, CA) and the other a high-fat diet (HFD, 60% kcal fat, D12492, Research Diets, New Brunswick, NJ). Both were available ad libitum for 11 weeks. Body weight and food intake were recorded three times per week. Animals from both groups were randomly assigned to three cohorts: a) free feeding, b) fasting (from 6:00 pm to 12:00 pm on the following day) and c) fasting/refeeding (2 hr access to food after fasting). Mice assigned to the fasting and fasting/refeeding groups were housed in bottom-wired cages to prevent coprophagia.
# OEA was dissolved in a vehicle of 95% saline/5% Tween80 (v/v) shortly before experiments. It was administered by intraperitoneal (i.p.) injection at 5 mg/kg in a volume of 10 ml/kg.
# We extracted total RNA from liver using TRIzol™ reagent (Thermo Fisher Scientific, Waltham, MS) and purified it with the PureLink™ RNA Mini Kit (Invitrogen, Waltham, MS) as directed by the supplier. Prior to purification, samples were passed through a gDNA Eliminator spin column (Qiagen, Germantown, CA). We quantified RNA using NanoDrop 2000/2000-c spectrophotometer (Thermo Fisher Scientific). cDNA was synthesized from […] of total RNA using the High-Capacity cDNA RT Kit with RNase inhibitor (Applied BioSystems, Foster City, CA) following manufacturer's instructions. First-strand cDNA was amplified using TaqMan™ Universal PCR Master Mixture (Thermo Fisher Scientific) Real-time PCR reactions were performed in 96-well plates using the CFX96™ Real-Time System (Bio-Rad, Hercules, CA). The thermal cycling conditions were as follows: initial denaturation set at 95° C. for 10 min, followed by 45 cycles, where each cycle was performed at 95° C. for 30 s followed by 55° C. for 60 s. ΔCt values were calculated using the geometric mean of three different housekeeping genes, and the relative fold changes over control groups (chow-free feed) were calculated by the 2-44Ct method. Real-time PCR primers and fluorogenic probes were purchased from Applied Biosystems (TaqMan (R) Gene Expression Assays, Foster City, CA). We used TaqMan gene expression assays for mouse Actb (Mm00607939_s1), Hprt (Mm00446968_m1), Gapdh (Mm99999915_g1), Tnfa (Mm00443258_m1), Il1b (Mm00434228_m1), Tgfb1 (Mm_01178820_m1), Ccl2 (Mm_00441242_m1) Hmox1 (Mm_00516005_m1), Col1a1 (Mm_00801666_g1), Nqo1 (Mm_01135606_m1), Nrf1 (Mm01135606_m1), Faah (Mm_00515684_m1), and NapepId (Mm_00724596_m1) (Applied Biosystems, Foster City, CA).
# Diet-induced obesity is associated with the development of liver steatosis and fibrosis. We asked whether OEA supplementation might correct these alterations in HFD-fed mice, which are defective in endogenous OEA production. We exposed mice to HFD for 5 weeks, randomized them into two groups, and treated them either with OEA (5 mg/kg, once daily) or vehicle for 6 additional weeks of HFD exposure. As expected, OEA administration reduced body weight gain and lowered circulating total cholesterol and liver transaminase levels (Table 2, FIG. 5). These effects were accompanied by improvement in hepatic lipid profile (FIG. 3). […] Transcription of other relevant genes (Nrf1, Tnfa, Tgf1b, Nqo1) was not affected (FIG. 3h-j).
# liver of HFD-fed mice = test: Subchronic i.p. OEA in HFD-fed mice: liver lipid accumulation (Oil Red O, BODIPY, triglyceride kit); assay type: in vivo, mouse; conditions: OEA 5 mg/kg i.p. once daily 6 weeks, versus vehicle controls
# Procedure: 18-week-old mice were randomized into two groups; one received standard chow (6.5% kcal fat, Envigo 2020X, Livermore, CA) and the other a high-fat diet (HFD, 60% kcal fat, D12492, Research Diets, New Brunswick, NJ). Both were available ad libitum for 11 weeks. Body weight and food intake were recorded three times per week. Animals from both groups were randomly assigned to three cohorts: a) free feeding, b) fasting (from 6:00 pm to 12:00 pm on the following day) and c) fasting/refeeding (2 hr access to food after fasting). Mice assigned to the fasting and fasting/refeeding groups were housed in bottom-wired cages to prevent coprophagia. OEA was dissolved in a vehicle of 95% saline/5% Tween80 (v/v) shortly before experiments. It was administered by intraperitoneal (i.p.) injection at 5 mg/kg in a volume of 10 ml/kg. Liver triglycerides were quantified using a colorimetric assay kit (Cayman Chemicals). Briefly, ˜30 mg of right liver lobe were mixed with 0.2 mL of assay buffer and processed following manufacturer's instructions. Oil Red O Staining: We embedded liver samples in a mold, cut them into 7-μm thick sections with a cryostat and fixed them with 4% paraformaldehyde (PFA) for 15 min. After fixation, we immersed the sections in phosphate-buffered saline (PBS) for 2 min, placed them in isopropanol (60%) for 2 min, and incubated them with Oil Red O (60% in isopropanol) for 30 min. […]
# PPAR-α [2] = molecular target: T1, PPAR-α (Homo sapiens, UniProt Q07869); conditions: PPAR-α agonist; read-out: median effective concentration, EC50; cited from earlier work
# T1 sequence (Q07869 1-468): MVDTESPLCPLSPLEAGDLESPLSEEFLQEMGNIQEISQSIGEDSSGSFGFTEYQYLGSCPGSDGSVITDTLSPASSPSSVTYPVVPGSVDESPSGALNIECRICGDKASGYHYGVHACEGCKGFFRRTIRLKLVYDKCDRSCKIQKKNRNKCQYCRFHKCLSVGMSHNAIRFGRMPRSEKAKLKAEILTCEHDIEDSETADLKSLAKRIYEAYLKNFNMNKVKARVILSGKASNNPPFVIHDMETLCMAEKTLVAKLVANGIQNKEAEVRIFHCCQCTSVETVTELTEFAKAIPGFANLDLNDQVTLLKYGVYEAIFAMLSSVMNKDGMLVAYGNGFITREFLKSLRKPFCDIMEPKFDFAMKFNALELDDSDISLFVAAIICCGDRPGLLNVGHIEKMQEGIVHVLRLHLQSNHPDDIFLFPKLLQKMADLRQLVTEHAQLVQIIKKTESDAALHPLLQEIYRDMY
# PPAR-α [3] = molecular target: T1, PPAR-α; conditions: read-out: affinity constant, KD; cited from earlier work
smiles,measurement,setting,value
"CCCCCCCC/C=C\CCCCCCCC(=O)NCCO [OEA, oleoylethanolamide]",A Body weight,HFD-fed mice,2.27 ± 0.5 g
same,ALT (SPGT),HFD-fed mice,45.4 ± 6.9 IU/L
same,AST (SGOT),HFD-fed mice,86.1 ± 9.9 IU/L
same,Cholesterol,HFD-fed mice,173.6 ± 7.6 mg/dL
same,Glucose,HFD-fed mice,250.5 ± 19.1 mg/dL
same,Triglyceride,HFD-fed mice,81.0 ± 4.9 mg/dL
same,liver transcription of C-C Motif Chemokine Ligand 2 (Ccl2),[1],attenuated
same,liver transcription of Nqo1,[1],not affected
same,liver transcription of Nrf1,[1],not affected
same,liver transcription of Tgf1b,[1],not affected
same,liver transcription of Tnfa,[1],not affected
same,liver transcription of collagen type I a1 (Col1a1),[1],attenuated
same,liver transcription of heme oxygenase 1 (Hmox1),[1],enhanced
same,liver transcription of interleukin 1B (1/1b),[1],attenuated
same,liver lipid content (Oil Red O and BODIPY staining of liver sections),liver of HFD-fed mice,reduced
same,liver triglyceride content,liver of HFD-fed mice,lower
same,EC50,PPAR-α [2],~120 nM
same,Kd,PPAR-α [3],~40 nM
